No end group written: not given here.
Assay: physchem
Settings: water

| Sequence | solubility |
| --- | --- |
| EAKSSIAKHFSLWKSYADADIKNSENK [A] | 2000 µg/mL |
| FHNSNSRILFNQENNNFMYS [B] | 2000 µg/mL |
